Test results taken from the supplement of paper PMC10627819.

Tests used:
B. subtilis 168 [1] = assay: fitness (endpoint OD595 vs no drug) (fraction); higher = more growth
Outline: (§1)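 At 37 °C, bacteria in TSB, LB Lennox or CY were grown in 384-well plates from a starting OD595 of 0.01. OD595 was measured every 30 min for 14 h, with the first reading used as background. Fitness is the optical density at the switch to stationary phase as a fraction of the robust mean of no-drug control wells, capped at 1.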

S. aureus DSM 20231 [2] = assay: as above
Outline: as §1

S. aureus Newman [3] = assay: as above
Outline: as §1

S. pneumoniae D39V [4] = assay: as above
Outline: as §1

B. subtilis 168 [5] = assay: Bliss interaction score (quartile over a dose matrix) (fitness difference); higher = more antagonism (negative = synergy)
Outline: (§2)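 Quartiles of the Bliss score were taken over technical, biological and donor/recipient replicates. That score is observed fitness minus the product of the single-drug fitness values, which were inferred from combination data. Fitness itself is OD595 at entry into stationary phase divided by the plate's robust no-drug mean, with a cap at 1.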

S. aureus DSM 20231 [6] = assay: as above
Outline: as §2

S. aureus Newman [7] = assay: as above
Outline: as §2

S. pneumoniae D39V [8] = assay: as above
Outline: as §2
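Throughout, for Bliss interaction score (quartile over a dose matrix): first quartile when negative (synergy) and third quartile when positive (antagonism).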

COc1c(N2C[C@@H]3CCCN[C@@H]3C2)c(F)cc2c(=O)c(C(=O)O)cn(C3CC3)c12 [Moxifloxacin] + CN(N=O)C(=O)N[C@@H](C=O)[C@@H](O)[C@H](O)[C@H](O)CO [Streptozotocin]
fitness
Conditions | partner 0.15 µg/mL | partner 0.3 µg/mL | partner 0.6 µg/mL | partner 1.2 µg/mL | partner 2.4 µg/mL | partner 4.8 µg/mL
B. subtilis 168 [1], first compound 0.0312 µg/mL | 0.0402 | 0.04 | 0.0108 | – | – | –
B. subtilis 168 [1], first compound 0.0625 µg/mL | 0.0394 | 0.0297 | 0.0273 | – | – | –
B. subtilis 168 [1], first compound 0.125 µg/mL | 0.0412 | 0.0464 | 0.0221 | – | – | –
S. aureus DSM 20231 [2], first compound 0.0075 µg/mL | 0.75 | 0.715 | 0.614 | – | – | –
S. aureus DSM 20231 [2], first compound 0.015 µg/mL | 0.691 | 0.681 | 0.59 | – | – | –
S. aureus DSM 20231 [2], first compound 0.03 µg/mL | 0.611 | 0.632 | 0.533 | – | – | –
S. aureus Newman [3], first compound 0.0075 µg/mL | 0.69 | 0.635 | 0.392 | – | – | –
S. aureus Newman [3], first compound 0.015 µg/mL | 0.453 | 0.378 | 0.106 | – | – | –
S. aureus Newman [3], first compound 0.03 µg/mL | 0.0433 | 0.0331 | 0.0187 | – | – | –
S. pneumoniae D39V [4], first compound 0.005 µg/mL | – | – | – | 0.94 | 0.951 | 0.943
S. pneumoniae D39V [4], first compound 0.01 µg/mL | – | – | – | 0.951 | 0.95 | 0.928
S. pneumoniae D39V [4], first compound 0.02 µg/mL | – | – | – | 0.919 | 0.875 | 0.895

fitness, one replicate
Conditions | partner 0.15 µg/mL | partner 0.3 µg/mL | partner 0.6 µg/mL | partner 1.2 µg/mL | partner 2.4 µg/mL | partner 4.8 µg/mL
B. subtilis 168 [1], first compound 2 µg/mL | 0.0199 | 0.0131 | 0 | – | – | –
B. subtilis 168 [1], first compound 4 µg/mL | 0.0208 | 0.0015 | 0.0018 | – | – | –
B. subtilis 168 [1], first compound 8 µg/mL | 0.0288 | 0.0107 | 0.0248 | – | – | –
S. aureus DSM 20231 [2], first compound 0.06 µg/mL | 0.653 | 0.639 | 0.605 | – | – | –
S. aureus DSM 20231 [2], first compound 0.12 µg/mL | 0.453 | 0.448 | 0.391 | – | – | –
S. pneumoniae D39V [4], first compound 0.0037 µg/mL | – | – | – | 0.978 | 0.879 | 0.844
S. pneumoniae D39V [4], first compound 0.0075 µg/mL | – | – | – | 0.92 | 0.922 | 0.811
S. pneumoniae D39V [4], first compound 0.015 µg/mL | – | – | – | 0.878 | 0.872 | 0.811

Conditions | Bliss interaction score
B. subtilis 168 [5] | -0.0331
S. aureus DSM 20231 [6] | 0.0189
S. aureus Newman [7] | -0.14
S. pneumoniae D39V [8] | 0.0634

COc1c(N2C[C@@H]3CCCN[C@@H]3C2)c(F)cc2c(=O)c(C(=O)O)cn(C3CC3)c12 [Moxifloxacin] + CN[C@@H]1[C@H](O)[C@H](NC)[C@H]2O[C@@]3(O)C(=O)C[C@@H](C)O[C@H]3O[C@@H]2[C@H]1O [Spectinomycin]
fitness
Conditions | partner 2 µg/mL | partner 4 µg/mL | partner 8 µg/mL | partner 16 µg/mL
B. subtilis 168 [1], first compound 0.0312 µg/mL | 0.0488 | 0.0437 | 0.0518 | –
B. subtilis 168 [1], first compound 0.0625 µg/mL | 0.0414 | 0.0348 | 0.0153 | –
B. subtilis 168 [1], first compound 0.125 µg/mL | 0.026 | 0.0367 | 0.0296 | –
B. subtilis 168 [1], first compound 2 µg/mL | 0.0229 | 0.0184 | 0.0086 | –
B. subtilis 168 [1], first compound 4 µg/mL | 0.0296 | 0.0084 | 0.0039 | –
B. subtilis 168 [1], first compound 8 µg/mL | 0.0255 | 0.02 | 0.0092 | –
S. aureus DSM 20231 [2], first compound 0.0075 µg/mL | – | 0.822 | 0.848 | 0.731
S. aureus DSM 20231 [2], first compound 0.015 µg/mL | – | 0.725 | 0.734 | 0.743
S. aureus DSM 20231 [2], first compound 0.03 µg/mL | – | 0.654 | 0.74 | 0.694
S. aureus Newman [3], first compound 0.0075 µg/mL | – | 0.742 | 0.748 | 0.7
S. aureus Newman [3], first compound 0.015 µg/mL | – | – | – | 0.497
S. aureus Newman [3], first compound 0.03 µg/mL | – | – | 0.0882 | 0.0514
S. pneumoniae D39V [4], first compound 0.005 µg/mL | – | 0.923 | 0.936 | 0.82
S. pneumoniae D39V [4], first compound 0.01 µg/mL | – | 0.944 | 0.93 | 0.836
S. pneumoniae D39V [4], first compound 0.02 µg/mL | – | 0.896 | 0.843 | 0.796

one replicate
Conditions | fitness
S. aureus DSM 20231 [2], first compound 0.0075 µg/mL, partner 32 µg/mL | 0.666
S. aureus DSM 20231 [2], first compound 0.0075 µg/mL, partner 64 µg/mL | 0.0692
S. aureus DSM 20231 [2], first compound 0.015 µg/mL, partner 32 µg/mL | 0.656
S. aureus DSM 20231 [2], first compound 0.015 µg/mL, partner 64 µg/mL | 0.0534
S. aureus DSM 20231 [2], first compound 0.03 µg/mL, partner 32 µg/mL | 0.625
S. aureus DSM 20231 [2], first compound 0.03 µg/mL, partner 64 µg/mL | 0.0231
S. aureus DSM 20231 [2], first compound 0.06 µg/mL, partner 4 µg/mL | 0.664
S. aureus DSM 20231 [2], first compound 0.06 µg/mL, partner 8 µg/mL | 0.675
S. aureus DSM 20231 [2], first compound 0.06 µg/mL, partner 16 µg/mL | 0.673
S. aureus DSM 20231 [2], first compound 0.12 µg/mL, partner 4 µg/mL | 0.505
S. aureus DSM 20231 [2], first compound 0.12 µg/mL, partner 8 µg/mL | 0.457
S. aureus DSM 20231 [2], first compound 0.12 µg/mL, partner 16 µg/mL | 0.523
S. aureus Newman [3], first compound 0.0075 µg/mL, partner 32 µg/mL | 0.464
S. aureus Newman [3], first compound 0.0075 µg/mL, partner 64 µg/mL | 0.0581
S. aureus Newman [3], first compound 0.015 µg/mL, partner 32 µg/mL | 0.294
S. aureus Newman [3], first compound 0.015 µg/mL, partner 64 µg/mL | 0.047
S. aureus Newman [3], first compound 0.03 µg/mL, partner 32 µg/mL | 0.0318
S. aureus Newman [3], first compound 0.03 µg/mL, partner 64 µg/mL | 0.0289
S. pneumoniae D39V [4], first compound 0.0037 µg/mL, partner 4 µg/mL | 0.897
S. pneumoniae D39V [4], first compound 0.0037 µg/mL, partner 8 µg/mL | 0.83
S. pneumoniae D39V [4], first compound 0.0075 µg/mL, partner 4 µg/mL | 0.912
S. pneumoniae D39V [4], first compound 0.0075 µg/mL, partner 8 µg/mL | 0.816
S. pneumoniae D39V [4], first compound 0.015 µg/mL, partner 4 µg/mL | 0.891
S. pneumoniae D39V [4], first compound 0.015 µg/mL, partner 8 µg/mL | 0.813

Conditions | Bliss interaction score
B. subtilis 168 [5] | -0.0287
S. aureus DSM 20231 [6] | -0.0426
S. aureus Newman [7] | -0.0569
S. pneumoniae D39V [8] | 0.0328
